# ChEMBL document CHEMBL5291721, “A preclinical secondary pharmacology resource illuminates target-adverse drug reaction associations of marketed drugs” (Nat Commun, 2023)
# Assays:
# [1] = target: 5-hydroxytryptamine receptor 2B (Homo sapiens, UniProt P41595); type: functional, cell-based
# [2] = target: T1, Alpha-1A adrenergic receptor (Homo sapiens, UniProt P35348); type: functional, cell-based
# T1 sequence (P35348 whole entry): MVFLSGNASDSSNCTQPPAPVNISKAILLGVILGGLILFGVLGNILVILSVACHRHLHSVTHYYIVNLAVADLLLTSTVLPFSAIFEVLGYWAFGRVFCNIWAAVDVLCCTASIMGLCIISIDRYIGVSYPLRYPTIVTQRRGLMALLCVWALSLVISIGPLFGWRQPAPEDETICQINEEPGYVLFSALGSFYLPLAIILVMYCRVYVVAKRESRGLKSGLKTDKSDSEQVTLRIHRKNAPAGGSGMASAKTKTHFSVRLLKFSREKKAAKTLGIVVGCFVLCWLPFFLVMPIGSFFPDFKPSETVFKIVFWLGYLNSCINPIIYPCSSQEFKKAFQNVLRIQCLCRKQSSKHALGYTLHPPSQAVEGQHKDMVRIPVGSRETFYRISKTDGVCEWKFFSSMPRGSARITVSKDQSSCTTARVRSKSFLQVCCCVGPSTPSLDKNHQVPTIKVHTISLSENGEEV
# [3] = target: Sodium-dependent dopamine transporter (Homo sapiens, UniProt Q01959)
# [4] = target: T2, Adenosine receptor A3 (Homo sapiens, UniProt P0DMS8)
# T2 sequence (P0DMS8 whole entry): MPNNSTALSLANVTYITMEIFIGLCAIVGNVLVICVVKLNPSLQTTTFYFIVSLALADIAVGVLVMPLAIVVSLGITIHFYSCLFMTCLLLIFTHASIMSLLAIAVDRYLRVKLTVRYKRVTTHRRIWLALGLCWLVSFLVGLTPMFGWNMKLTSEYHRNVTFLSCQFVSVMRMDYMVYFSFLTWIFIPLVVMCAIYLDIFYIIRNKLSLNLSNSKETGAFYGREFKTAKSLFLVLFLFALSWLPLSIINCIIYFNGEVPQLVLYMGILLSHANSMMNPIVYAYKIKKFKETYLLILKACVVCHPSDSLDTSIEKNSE
# [5] = target: Sodium-dependent serotonin transporter (Homo sapiens, UniProt P31645)
# [6] = target: T1, Alpha-1A adrenergic receptor; type: functional, cell-based; remark: listed apart in the source
# [7] = target: Voltage-gated inwardly rectifying potassium channel KCNH2 (Homo sapiens, UniProt Q12809); type: functional; settings: read-out: AC50
# [8] = target: 3',5'-cyclic-AMP phosphodiesterase 4A (Homo sapiens, UniProt P27815); type: functional
# [9] = target: Prostaglandin G/H synthase 1 (Homo sapiens, UniProt P23219); type: functional
# [10] = target: cGMP-inhibited 3',5'-cyclic phosphodiesterase 3A (Homo sapiens, UniProt Q14432); type: functional
# [11] = target: T3, Progesterone receptor (Homo sapiens, UniProt P06401)
# T3 sequence (P06401 whole entry): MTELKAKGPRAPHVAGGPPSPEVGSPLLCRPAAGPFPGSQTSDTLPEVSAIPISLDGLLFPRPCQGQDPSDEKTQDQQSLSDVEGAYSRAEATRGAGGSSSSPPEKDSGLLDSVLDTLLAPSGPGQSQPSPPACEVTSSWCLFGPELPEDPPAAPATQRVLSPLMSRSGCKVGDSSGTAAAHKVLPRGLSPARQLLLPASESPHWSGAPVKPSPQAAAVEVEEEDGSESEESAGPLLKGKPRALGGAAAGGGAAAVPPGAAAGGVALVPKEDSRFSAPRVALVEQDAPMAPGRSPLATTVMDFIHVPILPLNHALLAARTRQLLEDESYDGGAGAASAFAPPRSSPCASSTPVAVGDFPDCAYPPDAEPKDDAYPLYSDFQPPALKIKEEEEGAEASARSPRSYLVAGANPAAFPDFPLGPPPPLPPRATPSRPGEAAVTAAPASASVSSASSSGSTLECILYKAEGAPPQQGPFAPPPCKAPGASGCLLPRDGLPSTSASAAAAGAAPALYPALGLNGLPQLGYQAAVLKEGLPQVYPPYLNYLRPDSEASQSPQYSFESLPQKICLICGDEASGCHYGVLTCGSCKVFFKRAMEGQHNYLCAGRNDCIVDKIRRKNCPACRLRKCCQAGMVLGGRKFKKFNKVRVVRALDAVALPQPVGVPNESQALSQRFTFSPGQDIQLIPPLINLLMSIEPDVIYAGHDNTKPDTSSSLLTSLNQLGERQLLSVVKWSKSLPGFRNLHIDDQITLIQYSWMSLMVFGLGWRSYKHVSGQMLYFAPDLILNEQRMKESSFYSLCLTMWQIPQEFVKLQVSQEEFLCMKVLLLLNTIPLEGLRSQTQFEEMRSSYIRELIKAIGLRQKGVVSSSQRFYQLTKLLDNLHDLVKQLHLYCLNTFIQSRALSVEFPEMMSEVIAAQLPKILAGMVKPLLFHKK
# [12] = target: T4, Estrogen receptor (Homo sapiens, UniProt P03372)
# T4 sequence (P03372 whole entry): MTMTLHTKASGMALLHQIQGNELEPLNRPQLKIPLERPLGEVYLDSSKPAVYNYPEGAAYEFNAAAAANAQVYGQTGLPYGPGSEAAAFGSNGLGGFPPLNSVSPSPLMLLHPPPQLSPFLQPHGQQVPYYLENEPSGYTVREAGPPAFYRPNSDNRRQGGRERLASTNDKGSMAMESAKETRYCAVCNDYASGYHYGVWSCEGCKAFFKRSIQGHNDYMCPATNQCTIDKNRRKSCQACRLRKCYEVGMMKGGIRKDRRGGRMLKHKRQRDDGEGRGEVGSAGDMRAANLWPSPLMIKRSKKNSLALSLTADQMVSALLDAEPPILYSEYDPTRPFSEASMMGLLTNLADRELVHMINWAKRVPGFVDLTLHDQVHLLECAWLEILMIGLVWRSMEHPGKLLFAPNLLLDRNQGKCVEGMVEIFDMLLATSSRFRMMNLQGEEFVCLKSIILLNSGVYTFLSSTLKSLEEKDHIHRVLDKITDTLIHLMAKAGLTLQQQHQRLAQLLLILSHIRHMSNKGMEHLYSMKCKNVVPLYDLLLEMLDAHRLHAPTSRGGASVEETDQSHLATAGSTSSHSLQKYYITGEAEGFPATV
# Note: assay procedure not described here.
# Chain of Sodium-dependent serotonin transporter (P31645 whole entry): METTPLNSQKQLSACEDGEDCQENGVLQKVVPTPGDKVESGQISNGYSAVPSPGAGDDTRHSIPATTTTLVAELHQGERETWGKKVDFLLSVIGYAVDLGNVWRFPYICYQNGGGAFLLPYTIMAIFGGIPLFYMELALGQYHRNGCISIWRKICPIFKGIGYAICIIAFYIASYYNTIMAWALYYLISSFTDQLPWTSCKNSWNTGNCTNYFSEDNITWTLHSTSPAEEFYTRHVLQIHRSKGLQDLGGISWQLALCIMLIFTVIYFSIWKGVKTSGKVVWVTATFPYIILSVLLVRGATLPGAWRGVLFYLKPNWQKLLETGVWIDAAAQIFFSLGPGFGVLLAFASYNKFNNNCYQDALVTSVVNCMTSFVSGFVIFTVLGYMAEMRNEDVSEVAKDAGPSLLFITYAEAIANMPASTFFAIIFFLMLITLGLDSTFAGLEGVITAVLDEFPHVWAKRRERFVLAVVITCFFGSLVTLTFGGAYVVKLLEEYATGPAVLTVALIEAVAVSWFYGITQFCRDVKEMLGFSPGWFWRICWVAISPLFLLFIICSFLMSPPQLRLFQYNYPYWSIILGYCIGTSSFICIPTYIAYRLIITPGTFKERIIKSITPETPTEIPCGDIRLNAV
# Chain of Voltage-gated inwardly rectifying potassium channel KCNH2 (Q12809 whole entry): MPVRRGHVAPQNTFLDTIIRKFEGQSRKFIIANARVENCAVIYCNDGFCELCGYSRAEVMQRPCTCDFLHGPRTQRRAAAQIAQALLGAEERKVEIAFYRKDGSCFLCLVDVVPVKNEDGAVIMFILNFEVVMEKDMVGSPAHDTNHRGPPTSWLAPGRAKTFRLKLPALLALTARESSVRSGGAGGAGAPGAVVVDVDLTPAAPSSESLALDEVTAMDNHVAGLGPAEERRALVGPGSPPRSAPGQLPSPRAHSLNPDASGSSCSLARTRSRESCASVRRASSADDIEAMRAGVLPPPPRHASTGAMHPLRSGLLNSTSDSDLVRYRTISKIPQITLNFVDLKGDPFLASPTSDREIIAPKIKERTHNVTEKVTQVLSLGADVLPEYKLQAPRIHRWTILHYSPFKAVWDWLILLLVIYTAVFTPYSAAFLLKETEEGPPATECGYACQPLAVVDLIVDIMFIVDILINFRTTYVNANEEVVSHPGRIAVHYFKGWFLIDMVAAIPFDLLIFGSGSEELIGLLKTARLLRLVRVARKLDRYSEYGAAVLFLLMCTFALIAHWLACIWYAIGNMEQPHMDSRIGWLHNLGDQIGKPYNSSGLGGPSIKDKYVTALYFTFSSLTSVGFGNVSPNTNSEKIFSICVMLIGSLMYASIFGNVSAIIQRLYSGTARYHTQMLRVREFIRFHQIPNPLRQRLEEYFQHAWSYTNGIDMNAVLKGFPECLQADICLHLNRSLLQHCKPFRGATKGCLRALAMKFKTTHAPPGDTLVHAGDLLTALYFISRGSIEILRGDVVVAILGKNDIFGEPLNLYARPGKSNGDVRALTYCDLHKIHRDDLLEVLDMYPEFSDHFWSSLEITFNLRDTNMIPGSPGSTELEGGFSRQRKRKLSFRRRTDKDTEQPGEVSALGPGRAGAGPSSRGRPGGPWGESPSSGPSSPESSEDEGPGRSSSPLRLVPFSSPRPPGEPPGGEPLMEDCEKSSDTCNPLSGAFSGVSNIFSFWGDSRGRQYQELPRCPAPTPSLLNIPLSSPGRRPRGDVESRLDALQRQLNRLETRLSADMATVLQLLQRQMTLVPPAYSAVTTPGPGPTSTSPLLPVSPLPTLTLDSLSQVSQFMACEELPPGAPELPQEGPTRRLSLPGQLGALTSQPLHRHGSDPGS
# Chain of Prostaglandin G/H synthase 1 (P23219 whole entry): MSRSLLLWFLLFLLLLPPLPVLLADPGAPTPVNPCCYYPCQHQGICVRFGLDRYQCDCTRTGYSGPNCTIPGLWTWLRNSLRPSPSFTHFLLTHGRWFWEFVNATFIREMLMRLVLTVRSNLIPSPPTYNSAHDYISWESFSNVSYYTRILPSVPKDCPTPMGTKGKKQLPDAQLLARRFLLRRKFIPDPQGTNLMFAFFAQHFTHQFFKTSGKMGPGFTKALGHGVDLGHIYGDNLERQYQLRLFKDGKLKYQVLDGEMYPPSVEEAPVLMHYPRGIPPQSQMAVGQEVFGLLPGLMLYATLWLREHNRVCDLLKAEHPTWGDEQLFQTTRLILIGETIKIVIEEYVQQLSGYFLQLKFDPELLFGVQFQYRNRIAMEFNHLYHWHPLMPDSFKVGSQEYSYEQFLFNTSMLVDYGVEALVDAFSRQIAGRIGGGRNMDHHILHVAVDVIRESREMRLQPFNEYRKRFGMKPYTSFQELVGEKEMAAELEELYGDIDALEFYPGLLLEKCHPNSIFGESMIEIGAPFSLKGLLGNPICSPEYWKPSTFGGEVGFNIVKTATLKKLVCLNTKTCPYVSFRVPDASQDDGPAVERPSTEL
# Chain of cGMP-inhibited 3',5'-cyclic phosphodiesterase 3A (Q14432 whole entry): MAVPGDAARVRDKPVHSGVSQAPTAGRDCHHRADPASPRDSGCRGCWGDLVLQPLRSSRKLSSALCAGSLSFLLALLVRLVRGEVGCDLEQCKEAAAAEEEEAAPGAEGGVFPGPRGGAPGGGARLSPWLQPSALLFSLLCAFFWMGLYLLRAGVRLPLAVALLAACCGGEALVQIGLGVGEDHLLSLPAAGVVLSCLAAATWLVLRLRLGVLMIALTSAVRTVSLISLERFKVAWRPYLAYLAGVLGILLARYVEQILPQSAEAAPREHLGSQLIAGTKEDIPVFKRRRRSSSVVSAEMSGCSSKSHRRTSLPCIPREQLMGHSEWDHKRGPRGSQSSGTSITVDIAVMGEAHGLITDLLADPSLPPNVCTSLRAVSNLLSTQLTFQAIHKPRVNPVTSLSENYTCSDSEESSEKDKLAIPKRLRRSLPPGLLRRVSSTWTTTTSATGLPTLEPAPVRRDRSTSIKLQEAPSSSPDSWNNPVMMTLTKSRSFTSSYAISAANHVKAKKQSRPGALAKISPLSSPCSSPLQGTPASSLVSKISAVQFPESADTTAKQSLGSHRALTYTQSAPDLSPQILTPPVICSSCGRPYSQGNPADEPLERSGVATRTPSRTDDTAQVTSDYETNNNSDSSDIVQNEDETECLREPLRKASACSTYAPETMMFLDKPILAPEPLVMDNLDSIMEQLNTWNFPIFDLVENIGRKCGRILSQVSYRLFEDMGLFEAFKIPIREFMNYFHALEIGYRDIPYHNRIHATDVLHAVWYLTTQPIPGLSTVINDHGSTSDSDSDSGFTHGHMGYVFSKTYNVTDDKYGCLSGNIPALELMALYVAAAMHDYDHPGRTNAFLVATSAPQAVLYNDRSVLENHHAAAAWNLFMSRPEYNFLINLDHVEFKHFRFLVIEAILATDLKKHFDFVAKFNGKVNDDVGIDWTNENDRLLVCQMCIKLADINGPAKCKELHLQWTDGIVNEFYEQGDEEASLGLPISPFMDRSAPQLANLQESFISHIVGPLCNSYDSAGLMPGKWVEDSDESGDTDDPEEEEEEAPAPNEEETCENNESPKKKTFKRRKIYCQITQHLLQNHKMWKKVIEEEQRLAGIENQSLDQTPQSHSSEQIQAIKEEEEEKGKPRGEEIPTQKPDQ
# Chain of 5-hydroxytryptamine receptor 2B (P41595 whole entry): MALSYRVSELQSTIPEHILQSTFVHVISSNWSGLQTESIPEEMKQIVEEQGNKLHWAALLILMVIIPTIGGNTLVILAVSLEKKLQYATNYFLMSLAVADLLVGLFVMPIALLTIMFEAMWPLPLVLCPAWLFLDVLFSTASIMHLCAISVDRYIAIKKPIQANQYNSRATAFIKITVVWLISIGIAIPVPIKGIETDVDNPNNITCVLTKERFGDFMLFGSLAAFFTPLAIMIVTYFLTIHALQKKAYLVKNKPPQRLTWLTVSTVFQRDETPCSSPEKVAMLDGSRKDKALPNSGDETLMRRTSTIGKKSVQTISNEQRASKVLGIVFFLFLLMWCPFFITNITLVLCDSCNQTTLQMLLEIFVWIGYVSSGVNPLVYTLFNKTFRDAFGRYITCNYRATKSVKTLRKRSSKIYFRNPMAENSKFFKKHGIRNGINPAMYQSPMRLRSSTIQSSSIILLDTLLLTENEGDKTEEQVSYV
# Chain of 3',5'-cyclic-AMP phosphodiesterase 4A (P27815 whole entry): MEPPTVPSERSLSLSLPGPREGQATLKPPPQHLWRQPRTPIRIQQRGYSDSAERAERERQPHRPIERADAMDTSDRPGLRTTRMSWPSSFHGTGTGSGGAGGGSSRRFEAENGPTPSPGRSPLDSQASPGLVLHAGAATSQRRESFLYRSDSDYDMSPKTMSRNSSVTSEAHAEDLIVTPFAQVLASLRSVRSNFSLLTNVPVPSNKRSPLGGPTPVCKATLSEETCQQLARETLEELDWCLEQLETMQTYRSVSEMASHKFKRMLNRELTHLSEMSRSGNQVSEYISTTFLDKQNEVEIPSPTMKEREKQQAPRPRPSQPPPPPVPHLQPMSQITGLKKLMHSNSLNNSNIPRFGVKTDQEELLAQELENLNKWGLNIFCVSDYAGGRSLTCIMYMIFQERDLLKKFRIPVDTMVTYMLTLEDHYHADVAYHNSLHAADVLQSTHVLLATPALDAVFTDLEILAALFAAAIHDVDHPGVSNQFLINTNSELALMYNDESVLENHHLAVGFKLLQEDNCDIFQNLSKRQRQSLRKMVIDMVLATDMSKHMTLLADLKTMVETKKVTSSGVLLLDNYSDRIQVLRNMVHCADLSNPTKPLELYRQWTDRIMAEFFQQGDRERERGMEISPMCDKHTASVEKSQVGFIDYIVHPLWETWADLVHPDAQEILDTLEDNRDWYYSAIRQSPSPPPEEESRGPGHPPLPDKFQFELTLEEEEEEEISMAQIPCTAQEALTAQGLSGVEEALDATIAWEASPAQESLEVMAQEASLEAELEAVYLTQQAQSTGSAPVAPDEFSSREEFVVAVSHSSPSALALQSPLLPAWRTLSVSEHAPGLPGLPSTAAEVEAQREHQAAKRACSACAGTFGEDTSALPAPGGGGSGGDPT
SMILES,AC50 [1],AC50 [2],AC50 [3],AC50 [4],AC50 [5],AC50 [6],AC50 [7],AC50 [8],AC50 [9],AC50 [10],AC50 [11],AC50 [12]
COCCOc1cnc(NS(=O)(=O)c2ccccc2)nc1 [GLYMIDINE],> 30 µM,> 30 µM,> 30 µM,> 30 µM,> 30 µM,> 30 µM,> 30 µM,> 30 µM,> 30 µM,> 30 µM,> 30 µM,> 30 µM
CCOC(=O)[C@H](CCc1ccccc1)N[C@@H](C)C(=O)N1Cc2cc(OC)c(OC)cc2C[C@H]1C(=O)O [MOEXIPRIL],> 30 µM,> 30 µM,> 30 µM,> 30 µM,> 30 µM,> 30 µM,> 30 µM,> 30 µM,> 30 µM,25.4 µM,> 30 µM,> 30 µM
CCOC(=O)c1ccc(OC(=O)CCCCCNC(=N)N)cc1 [GABEXATE],> 30 µM,> 30 µM,14.8 µM,> 30 µM,> 30 µM,> 30 µM,25 µM,> 30 µM,> 30 µM,> 30 µM,> 30 µM,> 30 µM
CCCC(=O)O[C@H]1[C@H](C)O[C@@H](O[C@H]2[C@H](N(C)C)[C@@H](O)[C@H](O[C@H]3[C@@H](CC=O)C[C@@H](C)[C@@H](O)/C=C/C=C/C[C@@H](C)OC(=O)C[C@@H](O)[C@@H]3OC)O[C@@H]2C)C[C@@]1(C)OC(=O)CC [ROKITAMYCIN],> 30 µM,> 30 µM,> 30 µM,> 30 µM,> 30 µM,> 30 µM,> 30 µM,> 30 µM,8.78 µM,> 10 µM,> 30 µM,> 30 µM
NC(=O)NCCC[C@H](N)C(=O)O [L-CITRULLINE],> 30 µM,> 30 µM,> 30 µM,> 30 µM,> 30 µM,> 30 µM,> 30 µM,> 30 µM,> 30 µM,> 30 µM,> 30 µM,> 30 µM
CCC(=O)O[C@]1(C(=O)COC(C)=O)CC[C@H]2[C@@H]3CCC4=CC(=O)CC[C@]4(C)[C@H]3[C@@H](O)C[C@@]21C [HYDROCORTISONE ACEPONATE],> 30 µM,> 30 µM,> 30 µM,> 30 µM,> 30 µM,> 30 µM,> 30 µM,> 30 µM,> 30 µM,> 30 µM,0.326 µM,> 30 µM
C[C@@H]1C[C@H]2[C@@H]3C[C@H](F)C4=CC(=O)C=C[C@]4(C)[C@@]3(Cl)[C@@H](O)C[C@]2(C)[C@H]1C(=O)COC(=O)C(C)(C)C [CLOCORTOLONE PIVALATE],> 30 µM,> 30 µM,> 10 µM,5.52 µM,> 30 µM,> 30 µM,–,> 30 µM,> 30 µM,> 30 µM,0.0118 µM,> 30 µM
C[C@@H](O)[C@H]1C(=O)N2C(C(=O)O)=C([C@H]3CCCO3)S[C@H]12 [FAROPENEM],> 30 µM,> 30 µM,> 30 µM,> 30 µM,> 30 µM,> 30 µM,> 30 µM,> 30 µM,11.4 µM,> 30 µM,> 30 µM,> 30 µM
CCC[C@@H]1C[C@@H](C(=O)N[C@@H]([C@H]2O[C@H](SC)[C@H](OP(=O)(O)O)[C@@H](O)[C@H]2O)[C@H](C)Cl)N(C)C1 [CLINDAMYCIN PHOSPHATE],> 30 µM,> 30 µM,> 30 µM,> 30 µM,> 30 µM,> 30 µM,> 30 µM,> 30 µM,> 30 µM,> 30 µM,> 30 µM,> 30 µM
c1cc(CN2CCCNCCNCCCNCC2)ccc1CN1CCCNCCNCCCNCC1 [PLERIXAFOR],> 30 µM,> 30 µM,> 30 µM,> 30 µM,> 30 µM,> 30 µM,–,> 30 µM,> 30 µM,> 30 µM,> 30 µM,> 30 µM
O=C(NC(Cc1cc(=O)[nH]c2ccccc12)C(=O)O)c1ccc(Cl)cc1 (configuration not stated) [REBAMIPIDE],> 30 µM,> 30 µM,> 30 µM,> 30 µM,> 30 µM,> 30 µM,–,> 30 µM,> 30 µM,> 30 µM,> 30 µM,> 30 µM
Cc1nnc(SCC2=C(C(=O)O)N3C(=O)[C@@H](NC(=O)Cn4cc(Cl)c(=O)c(Cl)c4)[C@H]3SC2)s1 [CEFAZEDONE],> 30 µM,> 30 µM,> 30 µM,> 30 µM,> 30 µM,> 30 µM,–,28.1 µM,8.23 µM,> 30 µM,> 30 µM,> 30 µM
CNC(=O)C[C@@H](N)C(=O)N[C@@H](C(=O)N[C@@H]1C(=O)N2[C@@H]1SC(C)(C)[C@@H]2C(=O)O)c1ccc(O)cc1 [ASPOXICILLIN],> 30 µM,> 30 µM,> 30 µM,> 30 µM,> 30 µM,> 30 µM,–,> 30 µM,> 30 µM,> 30 µM,> 30 µM,> 30 µM
CC1(C)S[C@@H]2[C@H](NC(=O)[C@H](NC(=O)N3CCN(S(C)(=O)=O)C3=O)c3ccccc3)C(=O)N2[C@H]1C(=O)O [MEZLOCILLIN],> 30 µM,> 30 µM,> 30 µM,> 30 µM,> 30 µM,> 30 µM,–,> 30 µM,> 30 µM,> 30 µM,> 30 µM,> 30 µM
